Reference: US11857560B2, “Pharmaceutical compositions comprising substituted nucleotides and nucleosides for treating viral infections” (priority 2013, dated 2024)
Read-outs that look alike come from different tables or passages of the source.

Columns and labels:
[1] = Cytotoxicity panel, Huh-7; settings: human, Huh-7 cells, Cytotoxicity (CC50 uM) Huh-7, Huh-7
[2] = Cytotoxicity panel, HepG2; settings: human, HepG2 cells
[3] = Toxicity in Huh-7 cells (Dengue assay); settings: human, Huh-7 cells
Cytotoxicity panel, CEM = settings: human, CEM cells, Cytotoxicity (CC50 uM) CEM
[4] = Cellular toxicity in parallel with HCV replicon assay (XTT); settings: human
Dengue Type 2 [5] = experiment: Anti-Dengue virus cytoprotection assay, Huh-7 cells; settings: Huh-7, read-out: Dengue Type 2 Huh-7 Cells (EC50 uM)
Dengue Type 2 [6] = experiment: Anti-Dengue virus cytoprotection assay, Vero cells; settings: read-out: Dengue Type 2 Vero Cells (EC50 uM)
[7] = Toxicity in Vero cells (Dengue assay); settings: African green monkey
RVFV = experiment: microbe, parasite or virus in culture; format: cell-based; settings: Rift Valley fever virus, read-out: RVFV EC50
Measles = experiment: Antiviral activity, Measles; format: cell-based, measles virus; settings: Measles morbillivirus
Influenza A H3N2 = experiment: Antiviral activity, Influenza A H3N2; format: cell-based
[8] = system: Influenza A H5N1 (low path); experiment: microbe, parasite or virus in culture; format: cell-based; settings: H5N1, read-out: Influenza A H5N1 (low path) EC50
Dengue Virus = experiment: Antiviral activity, Dengue Virus; format: cell-based
West Nile Virus = experiment: Antiviral activity, West Nile Virus; format: cell-based; settings: read-out: West Nile Virus EC50
SARS = experiment: microbe, parasite or virus in culture; settings: Severe acute respiratory syndrome coronavirus, read-out: SARS EC50
Influenza A H1N1 = experiment: Antiviral activity, Influenza A H1N1; format: cell-based
RSV = experiment: Antiviral activity, RSV; format: cell-based; settings: human respiratory syncytial virus
CHIK Virus = experiment: Antiviral activity, CHIK Virus; format: cell-based; settings: Chikungunya virus, read-out: CHIK Virus EC50
Influenza B = experiment: Antiviral activity, Influenza B; format: cell-based; settings: Influenza B virus; read-out: Influenza B EC50
Tacaribe Virus = experiment: microbe, parasite or virus in culture; format: cell-based; settings: Mammarenavirus tacaribeense, read-out: Tacaribe Virus EC50
VEEV = experiment: microbe, parasite or virus in culture; format: cell-based; settings: Venezuelan equine encephalitis virus, read-out: VEEV EC50
CEM = experiment: Cytotoxicity panel, CEM; settings: read-out: Cytotoxicity (CC50 uM) CEM
Cytotoxicity panel, H9c = format: cell-based; settings: rat, H9c cells
Cytotoxicity panel, A204 = format: cell-based; settings: human, A204 cells
[9] = Cytotoxicity panel, BxPC3; settings: human, BxPC3 cells
[10] = Cytotoxicity panel, IEC-6; format: cell-based; settings: rat, IEC-6 cells
[11] = Influenza A virus, H3N2; read-out: Influenza A H3N2 EC50
[12] = Influenza A virus, H1N1; read-out: Influenza A H1N1 EC50

## CC(C)OC(=O)[C@H](C)NP(=O)(OC[C@H]1O[C@@H](n2ccc(=O)[nH]c2=[Se])[C@](C)(O)C1O)Oc1ccccc1 (stereo partly drawn) [ENUC-02058-1]
[1]
  CC50: > 100 µM
[2]
  CC50: > 400 µM

## CC(C)OC(=O)[C@H](C)NP(=O)(OC[C@@]1(N=[N+]=[N-])O[C@@H](n2ccc(=S)[nH]c2=O)[C@@H](O)C1O)Oc1ccccc1 (stereo partly drawn) [ENUC-02083-1]
[3]
  CC50: > 100 µM
Cytotoxicity panel, CEM
  CC50: 229 µM
[4]
  CC50 at 72 h: > 100 µM
[2]
  CC50: > 400 µM
Dengue Type 2 [5]
  EC50: 4.82 µM

## C[C@@]1(O)C(O)[C@@H](COP(=O)(O)O)O[C@H]1n1ccc(=O)[nH]c1=S (stereo partly drawn) [ENUC-01984-1]
Cytotoxicity panel, CEM
  CC50: > 400 µM
[1]
  CC50: > 400 µM
[4]
  CC50 at 72 h: > 100 µM
[2]
  CC50: > 400 µM

## CC(C)OC(=O)[C@H](C)N[P@@](=O)(OC[C@H]1O[C@@H](n2ccc(=O)[nH]c2=S)[C@](C)(O)C1O)Oc1ccccc1 (stereo partly drawn) [ENUC-02024]
[3]
  CC50: > 100 µM
Dengue Type 2 [6]
  EC50: 56.2 µM
[7]
  CC50: > 100 µM
Dengue Type 2 [5]
  EC50: 24.9 µM

## CC(C)OC(=O)[C@H](C)N[P@](=O)(OC[C@H]1O[C@@H](n2ccc(=O)[nH]c2=O)[C@](C)(F)C1O)Oc1ccccc1 (stereo partly drawn) [ENUC-02025-1]
Cytotoxicity panel, CEM
  CC50: > 400 µM
[1]
  CC50: 279 µM
[2]
  CC50: 365 µM

## CNc1ccn([C@@H]2O[C@H](CO)C(O)[C@@H]2F)c(=O)n1 (stereo partly drawn) [EFVX-01853]
RVFV
  EC50: > 100 µg/mL
Measles
  EC50: > 100 µM
Influenza A H3N2; [11]
  EC50: > 100 µM
[8]
  EC50: > 100 µM
Dengue Virus
  EC50: > 100 µg/mL
West Nile Virus
  EC50: > 100 µg/mL
SARS
  EC50: > 100 µM
Influenza A H1N1; [12]
  EC50: > 100 µM
RSV
  EC50: > 100 µM
CHIK Virus
  EC50: > 100 µg/mL
Influenza B
  EC50: > 100 µM
Tacaribe Virus
  EC50: > 100 µg/mL
VEEV
  EC50: > 100 µg/mL

## CN(C)c1ccn([C@@H]2O[C@H](CO)C(O)[C@@H]2F)c(=O)n1 (stereo partly drawn) [EFVX-01854]
RVFV
  EC50: > 100 µg/mL
Measles
  EC50: > 100 µM
Influenza A H3N2; [11]
  EC50: > 100 µM
[8]
  EC50: > 100 µM
Dengue Virus
  EC50: > 100 µg/mL
West Nile Virus
  EC50: > 100 µg/mL
SARS
  EC50: > 100 µM
Influenza A H1N1; [12]
  EC50: > 100 µM
RSV
  EC50: > 100 µM
CHIK Virus
  EC50: > 100 µg/mL
Influenza B
  EC50: > 100 µM
Tacaribe Virus
  EC50: > 100 µg/mL
VEEV
  EC50: > 100 µg/mL

## CC(C)OC(=O)[C@H](C)NP(=O)(OC[C@H]1O[C@@H](n2ccc(=S)[nH]c2=O)[C@@H](O)C1O)Oc1ccccc1 (stereo partly drawn) [ENUC-02071-1]
CEM
  CC50: > 400 µM
Cytotoxicity panel, CEM
  CC50: 241 µM
[1]
  CC50: 381 µM
[4]
  CC50 at 72 h: > 100 µM

## Nc1ccn([C@@H]2O[C@H](CO)C(O)[C@@H]2F)c(=S)n1 (stereo partly drawn) [EFVX-01857]
RVFV
  EC50: > 100 µg/mL
Measles
  EC50: > 100 µM
Influenza A H3N2; Influenza A virus, H3N2, read-out: Influenza A H3N2 EC50
  EC50: > 100 µM
[8]
  EC50: > 100 µM
Dengue Virus
  EC50: > 100 µg/mL
West Nile Virus
  EC50: > 100 µg/mL
SARS
  EC50: > 87 µM
Influenza A H1N1; Influenza A virus, H1N1, read-out: Influenza A H1N1 EC50
  EC50: > 100 µM
RSV
  EC50: > 100 µM
CHIK Virus
  EC50: > 100 µg/mL
Influenza B
  EC50: > 100 µM
Tacaribe Virus
  EC50: > 100 µg/mL
In vitro
  CC50: 87 µM
VEEV
  EC50: > 100 µg/mL

## CC(C)OC(=O)[C@H](C)NP(=O)(OC[C@H]1O[C@@H](n2ccc(=O)[nH]c2=O)[C@](C)(O)C1O)Oc1ccccc1 (stereo partly drawn) [ENUC-01982-1]
Cytotoxicity panel, H9c
  CC50: 31 µM
Cytotoxicity panel, CEM
  CC50: 150 µM
[1]
  CC50: 65 µM
Cytotoxicity panel, A204
  CC50: 124 µM
[9]
  CC50: 157 µM
[2]
  CC50: 159 µM

## C#C[C@]1(COP(=O)(N[C@@H](C)C(=O)OC(C)C)Oc2ccccc2)O[C@@H](n2ccc(=O)[nH]c2=S)[C@@H](O)C1O (stereo partly drawn) [ENUC-02069-1]
[3]
  CC50: > 100 µM
Cytotoxicity panel, CEM
  CC50: > 400 µM
[1]
  CC50: > 400 µM
[2]
  CC50: > 400 µM
Dengue Type 2 [5]
  EC50: > 100 µM

## CC(C)OC(=O)[C@H](C)NP(=O)(OC[C@H]1O[C@@H](n2ccc(=S)[nH]c2=O)[C@](C)(F)C1O)Oc1ccccc1 (stereo partly drawn) [ENUC-01943-1]
Cytotoxicity panel, CEM
  CC50: 136 µM
Cytotoxicity panel, A204
  CC50: > 200 µM
[10]
  CC50: > 400 µM
[9]
  CC50: > 300 µM
[2]
  CC50: 199 µM

## C[C@@]1(O)C(O)[C@@H](CO)O[C@H]1n1ccc(=O)[nH]c1=S (stereo partly drawn) [ENUC-01850]
[3]
  CC50: > 100 µM
[7]
  CC50: > 100 µM

## CC(C)OC(=O)[C@H](C)N[P@@](=O)(OC[C@H]1O[C@@H](n2ccc(=O)[nH]c2=O)[C@](C)(F)C1O)Oc1ccccc1 (stereo partly drawn) [ENUC-02026-1]
Cytotoxicity panel, CEM
  CC50: > 400 µM
[1]
  CC50: > 400 µM
[2]
  CC50: > 400 µM

## C[C@@]1(O)C(O)[C@@H](CO)O[C@H]1n1ccc(=S)[nH]c1=O (stereo partly drawn) [ENUC-01916-1]
[2]
  CC50: > 400 µM
